{
  "source": "patent US9770407B2",
  "about": "(Lundbeck Pharmaceuticals LLC, priority 2005, dated 2017)",
  "key": {"[1]": {"test": "Phase solubility of CBZ in aqueous Captisol and aqueous Cavitron", "format": "physicochemical", "settings": "for Measured CBZ conc: ambient laboratory temperature", "experimental": "The percent weight/volume cyclodextrin solutions were prepared by adding the appropriate amount of cyclodextrin to a flask and filling to the desired total volume (10 mL) with water, as shown in the following Table 4. An excess of carbamazepine was added to each eppendorf tube. Appropriate vehicles were added to each tube and the final volumes were 1 mL. The solubility of CBZ was determined at ambient laboratory temperatures in various concentrations of aqueous Captisol and aqueous Cavitron (brand names of modified cyclodextrins useful in the present invention). The drug substance was added to a microcentrifuge tube and the appropriate vehicle was added. Periodically, the samples were centrifuged and then an aliquot was removed from the supernatant, diluted as necessary and assayed by HPLC to determine the concentration. The phase solubility was evaluated at least three times during each experiment to insure that the mixture achieved equilibrium. […] The solubilities reported in Table 5 are the average of two or three concentration determinations obtained during the respective time course."}, "[2]": {"test": "Subset analysis of subjects on extended release CBZ twice daily: predicted IV vs observed oral steady-state Cmax, Cmin, AUC", "format": "in vivo, human", "settings": "N=47; for AUC: human, plasma", "experimental": "A subset analysis of the subject data (n=47), including only those subjects taking extended release (ER) formulations of CBZ twice daily (as indicated by the product label), was performed to compare predicted maximum and minimum exposures of CBZ at steady-state administered via IV infusion to those observed following oral administration. CBZ concentration-time profiles following IV administration will differ from oral administration to the greatest extent for subjects on ER products, since these products provide formulation dependent control of the concentration-time profile. Subjects on extended release formulations experience the least fluctuation in concentrations and will maintain higher relative trough concentrations compared to any non-extended release product. Thus, the analysis in this subset gives a conservative assessment of potential differences in peak and trough exposures following IV administration. This analysis included calculations of predicted Cmax, Cmin, and AUCss values of CBZ for subjects predicted to be at steady-state on IV therapy."}, "[3]": {"test": "Estimated dissociation of CBZ from the inclusion complex on dilution in blood", "settings": "based on simulations of dilution effects; assumes no interaction from endogenous agents", "text": "These relatively weak associations are within the range (100-20,000 M^−1) of those commonly seen with drug: cyclodextrin complexes (Crit. Rev. Ther. Drug Carrier Systems, 14 (1): 1-104, 1997).\nThe minimal volume of distribution of a drug administered intravenously is based on the plasma volume, which is approximately 5% of the body weight. Therefore, in a 70 kg subject, the plasma volume is approximately 3.5 L. Alternatively, one could assume that the volume of distribution is extracellular water, accounting for approximately 30% of the total body weight, in which case the volume of distribution is about 21 L.\nIf a 20 mL dose were administered, the dilution ranges from 175-1,050-fold.\nBased on the simulations of dilution effects, it appears that 70-95% of the CBZ will immediately dissociate from the inclusion complex in the blood if one assumes no interaction from endogenous agents."}, "[4]": {"settings": "immediate release and extended release tablets; previously estimated; cited from earlier work"}, "[5]": {"settings": "5th Percentile, observed, ER products twice daily"}, "[6]": {"settings": "5th Percentile, predicted, IV every 6 hours"}, "[7]": {"settings": "95th Percentile, observed, ER products twice daily"}, "[8]": {"settings": "95th Percentile, predicted, IV every 6 hours"}, "[9]": {"settings": "Maximum, observed, ER products twice daily"}, "[10]": {"settings": "Maximum, predicted, IV every 6 hours"}, "[11]": {"settings": "Median, observed, ER products twice daily"}, "[12]": {"settings": "Median, predicted, IV every 6 hours"}, "[13]": {"settings": "Minimum, observed, ER products twice daily"}, "[14]": {"settings": "Minimum, predicted, IV every 6 hours"}},
  "note": "Several values for one entry are separate records, joined by “and”; a condition that tells them apart may be missing. Identical values can stand only once. Like-named read-outs stand apart in the source and are kept apart here.",
  "data": [
    {"molecule": "NC(=O)N1c2ccccc2C=Cc2ccccc21", "note": "[Carbamazepine, 5H-dibenz[b,f]azepine-5-carboxamide]", "values": [
      {"measurement": "Measured CBZ conc", "setting": "[1]; Cavitron 35% w/v, CBZ source Orgamol, listed as CBZ", "value": "18.1 mg/mL and 19.9 mg/mL"},
      {"measurement": "Measured CBZ conc", "setting": "[1]; Cavitron 35% w/v, CBZ source Spectrum", "value": 20.7, "unit": "mg/mL"},
      {"measurement": "Measured CBZ conc, Ave", "setting": "[1]; Cavitron 35% w/v, average of the three determinations", "value": 19.6, "unit": "mg/mL"},
      {"measurement": "Measured CBZ conc", "setting": "[1]; Cavitron 40% w/v, CBZ source Orgamol, listed as CBZ", "value": "22.5 mg/mL and 22.0 mg/mL"},
      {"measurement": "Measured CBZ conc", "setting": "[1]; Cavitron 40% w/v, CBZ source Spectrum", "value": 23.2, "unit": "mg/mL"},
      {"measurement": "Measured CBZ conc, Ave", "setting": "[1]; Cavitron 40% w/v, average of the three determinations", "value": 22.6, "unit": "mg/mL"},
      {"measurement": "Measured CBZ conc", "setting": "[1]; Cavitron 45% w/v, CBZ source Orgamol, listed as CBZ", "value": "25.5 mg/mL and 25.7 mg/mL"},
      {"measurement": "Measured CBZ conc", "setting": "[1]; Cavitron 45% w/v, CBZ source Spectrum", "value": 27.3, "unit": "mg/mL"},
      {"measurement": "Measured CBZ conc, Ave", "setting": "[1]; Cavitron 45% w/v, average of the three determinations", "value": 26.2, "unit": "mg/mL"},
      {"measurement": "Measured CBZ conc", "setting": "[1]; Cavitron 50% w/v, CBZ source Orgamol, listed as CBZ", "value": "27.8 mg/mL and 28.0 mg/mL"},
      {"measurement": "Measured CBZ conc", "setting": "[1]; Cavitron 50% w/v, CBZ source Spectrum", "value": 31.5, "unit": "mg/mL"},
      {"measurement": "Measured CBZ conc, Ave", "setting": "[1]; Cavitron 50% w/v, average of the three determinations", "value": 29.1, "unit": "mg/mL"},
      {"measurement": "solubility thermodynamic", "setting": "[1]; aqueous Cavitron, water, thermodynamic from solid, Cavitron 0% w/v, average of the three determinations, read-out: Measured CBZ conc, Ave", "value": 200, "unit": "µg/mL"},
      {"measurement": "CBZ solubility in Cavitron as compared to Captisol", "setting": "[1]; at most cyclodextrin concentrations, FIG. 1A", "value": "marginally improved in Cavitron"},
      {"measurement": "Oral Cmaxss", "setting": "[2]; [5]", "value": 4.98, "unit": "µg/mL"},
      {"measurement": "Oral Cminss", "setting": "[2]; [5]", "value": 4.32, "unit": "µg/mL"},
      {"measurement": "IV CmaxSS (mean F = 0.7)", "setting": "[2]; [6]", "value": 4.80, "unit": "µg/mL"},
      {"measurement": "IV CminSS (mean F = 0.7)", "setting": "[2]; [6]", "value": 2.48, "unit": "µg/mL"},
      {"measurement": "Oral Cmaxss", "setting": "[2]; [7]", "value": 14.60, "unit": "µg/mL"},
      {"measurement": "Oral Cminss", "setting": "[2]; [7]", "value": 14.55, "unit": "µg/mL"},
      {"measurement": "IV CmaxSS (mean F = 0.7)", "setting": "[2]; [8]", "value": 24.14, "unit": "µg/mL"},
      {"measurement": "IV CminSS (mean F = 0.7)", "setting": "[2]; [8]", "value": 18.64, "unit": "µg/mL"},
      {"measurement": "Oral Cmaxss", "setting": "[2]; [9]", "value": 17.10, "unit": "µg/mL"},
      {"measurement": "Oral Cminss", "setting": "[2]; [9]", "value": 16.69, "unit": "µg/mL"},
      {"measurement": "IV CmaxSS (mean F = 0.7)", "setting": "[2]; [10]", "value": 47.0, "unit": "µg/mL"},
      {"measurement": "IV CminSS (mean F = 0.7)", "setting": "[2]; [10]", "value": 41.04, "unit": "µg/mL"},
      {"measurement": "IV CmaxSS (mean F = 0.7)", "setting": "[2]; Maximum, predicted, IV every 6 hours, listed as CBZ", "value": 47.00, "unit": "µg/mL"},
      {"measurement": "Oral Cmaxss", "setting": "[2]; Mean ± SD, observed, ER products (Carbatrol, Tegretol XR) twice daily, highest observed concentration, sparse sampling", "value": "9.92 ± 2.99", "unit": "µg/mL"},
      {"measurement": "Oral Cminss", "setting": "[2]; Mean ± SD, observed, ER products twice daily", "value": "9.32 ± 2.93", "unit": "µg/mL"},
      {"measurement": "IV CminSS (mean F = 0.7)", "setting": "[2]; Mean ± SD, predicted, IV every 6 hours", "value": "8.63 ± 6.85", "unit": "µg/mL"},
      {"measurement": "IV CmaxSS (mean F = 0.7)", "setting": "[2]; Mean ± SD, predicted, scaled from 100 mg single IV dose over 10 minutes, every 6 hours", "value": "11.75 ± 7.90", "unit": "µg/mL"},
      {"measurement": "IV CmaxSS (mean F = 0.7)", "setting": "[2]; Mean ± SD, predicted, scaled from 100 mg single IV dose over 10 minutes, every 6 hours, listed as CBZ", "value": 11.75, "unit": "µg/mL"},
      {"measurement": "Oral Cmaxss", "setting": "[2]; [11]", "value": 9.81, "unit": "µg/mL"},
      {"measurement": "Oral Cminss", "setting": "[2]; [11]", "value": 9.44, "unit": "µg/mL"},
      {"measurement": "IV CmaxSS (mean F = 0.7)", "setting": "[2]; [12]", "value": 9.93, "unit": "µg/mL"},
      {"measurement": "IV CminSS (mean F = 0.7)", "setting": "[2]; [12]", "value": 6.50, "unit": "µg/mL"},
      {"measurement": "Oral Cmaxss", "setting": "[2]; [13]", "value": 2.89, "unit": "µg/mL"},
      {"measurement": "Oral Cminss", "setting": "[2]; [13]", "value": 2.89, "unit": "µg/mL"},
      {"measurement": "IV CmaxSS (mean F = 0.7)", "setting": "[2]; [14]", "value": 3.17, "unit": "µg/mL"},
      {"measurement": "IV CminSS (mean F = 0.7)", "setting": "[2]; [14]", "value": 1.65, "unit": "µg/mL"},
      {"measurement": "AUC", "setting": "[2]; iv, 5th Percentile, predicted, IV every 6 hours, read-out: IV AUCSS (mean F = 0.7)", "value": 43100, "unit": "ng·h/mL"},
      {"measurement": "AUC", "setting": "[2]; iv, 95th Percentile, predicted, IV every 6 hours, read-out: IV AUCSS (mean F = 0.7)", "value": 257000, "unit": "ng·h/mL"},
      {"measurement": "AUC", "setting": "[2]; iv, Maximum, predicted, IV every 6 hours, read-out: IV AUCSS (mean F = 0.7)", "value": 551000, "unit": "ng·h/mL"},
      {"measurement": "AUC", "setting": "[2]; iv, Mean ± SD, predicted, IV every 6 hours, read-out: IV AUCSS (mean F = 0.7)", "value": "122000 ± 90900", "unit": "ng·h/mL"},
      {"measurement": "AUC", "setting": "[2]; iv, Median, predicted, IV every 6 hours, read-out: IV AUCSS (mean F = 0.7)", "value": 93700, "unit": "ng·h/mL"},
      {"measurement": "AUC", "setting": "[2]; iv, Minimum, predicted, IV every 6 hours, read-out: IV AUCSS (mean F = 0.7)", "value": 26900, "unit": "ng·h/mL"},
      {"measurement": "AUC", "setting": "[2]; po, 5th Percentile, observed, ER products, 12 hour dosing interval, read-out: Oral AUCss", "value": 50100, "unit": "ng·h/mL"},
      {"measurement": "AUC", "setting": "[2]; po, 95th Percentile, observed, ER products, 12 hour dosing interval, read-out: Oral AUCss", "value": 146000, "unit": "ng·h/mL"},
      {"measurement": "AUC", "setting": "[2]; po, Maximum, observed, ER products, 12 hour dosing interval, read-out: Oral AUCss", "value": 168000, "unit": "ng·h/mL"},
      {"measurement": "AUC", "setting": "[2]; po, Mean ± SD, observed, ER products, 12 hour dosing interval, read-out: Oral AUCss", "value": "96800 ± 28100", "unit": "ng·h/mL"},
      {"measurement": "AUC", "setting": "[2]; po, Median, observed, ER products, 12 hour dosing interval, read-out: Oral AUCss", "value": 96000, "unit": "ng·h/mL"},
      {"measurement": "AUC", "setting": "[2]; po, Minimum, observed, ER products, 12 hour dosing interval, read-out: Oral AUCss", "value": 28500, "unit": "ng·h/mL"},
      {"measurement": "CBZ that will immediately dissociate from the inclusion complex in the blood", "setting": "[3]", "value": "70-95%"},
      {"measurement": "absolute bioavailability", "setting": "[4]", "value": "75-85"}
    ]}
  ]
}
